Source: PubChem BioAssay (NCI)
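Results reflect a 48-hour exposure of cells in 96-well plates to compound at five concentrations. Abbreviation: GI50, concentration required for 50% inhibition of growth. TGI denotes the concentration required for complete inhibition of growth.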

Columns and labels:
Assay in all cases: NCI tumour cell line growth inhibition, 48 h
786-0 renal = test system: 786-0 renal
A498 renal = test system: A498 renal
A549 NSCLC = test system: A549 NSCLC
ACHN renal = test system: ACHN renal
BT-549 breast = test system: BT-549 breast
CAKI-1 renal = test system: CAKI-1 renal
CCRF-CEM leukemia = test system: CCRF-CEM leukemia
COLO 205 colon = test system: COLO 205 colon
DU-145 prostate = test system: DU-145 prostate
EKVX NSCLC = test system: EKVX NSCLC
HCC-2998 colon = test system: HCC-2998 colon
HCT-116 colon = test system: HCT-116 colon
HCT-15 colon = test system: HCT-15 colon
HL-60(TB) leukemia = test system: HL-60(TB) leukemia
HOP-62 NSCLC = test system: HOP-62 NSCLC
HOP-92 NSCLC = test system: HOP-92 NSCLC
HS 578T breast = test system: HS 578T breast
HT29 colon = test system: HT29 colon
IGROV1 ovarian = test system: IGROV1 ovarian
K-562 leukemia = test system: K-562 leukemia
KM12 colon = test system: KM12 colon
LOX IMVI melanoma = test system: LOX IMVI melanoma
M14 melanoma = test system: M14 melanoma
MALME-3M melanoma = test system: MALME-3M melanoma
MCF7 breast = test system: MCF7 breast
MDA-MB-231 breast = test system: MDA-MB-231 breast
MDA-MB-435 = test system: MDA-MB-435
MOLT-4 leukemia = test system: MOLT-4 leukemia
NCI-H226 lung = test system: NCI-H226 lung
NCI-H23 lung = test system: NCI-H23 lung
NCI-H460 lung = test system: NCI-H460 lung
NCI-H522 lung = test system: NCI-H522 lung
NCI/ADR-RES ovarian = test system: NCI/ADR-RES ovarian
OVCAR-3 ovarian = test system: OVCAR-3 ovarian
OVCAR-4 ovarian = test system: OVCAR-4 ovarian
OVCAR-5 ovarian = test system: OVCAR-5 ovarian
OVCAR-8 ovarian = test system: OVCAR-8 ovarian
PC-3 prostate = test system: PC-3 prostate
RPMI-8226 leukemia = test system: RPMI-8226 leukemia
RXF 393 renal = test system: RXF 393 renal
SF-268 CNS = test system: SF-268 CNS
SF-295 CNS = test system: SF-295 CNS
SF-539 CNS = test system: SF-539 CNS
SK-MEL-2 melanoma = test system: SK-MEL-2 melanoma
SK-MEL-28 melanoma = test system: SK-MEL-28 melanoma
SK-MEL-5 melanoma = test system: SK-MEL-5 melanoma
SK-OV-3 ovarian = test system: SK-OV-3 ovarian
SN12C renal = test system: SN12C renal
SNB-19 CNS = test system: SNB-19 CNS
SNB-75 CNS = test system: SNB-75 CNS
SR leukemia = test system: SR leukemia
SW-620 colon = test system: SW-620 colon
T-47D breast = test system: T-47D breast
TK-10 renal = test system: TK-10 renal
U251 CNS = test system: U251 CNS
UACC-257 melanoma = test system: UACC-257 melanoma
UACC-62 melanoma = test system: UACC-62 melanoma
UO-31 renal = test system: UO-31 renal

## CC(C)c1ccc(COCc2cc(CN3CCCC3)c(O)c3ncccc23)cc1
786-0 renal
  GI50: 468 nM
  TGI: 3830 nM
A498 renal
  GI50: 778 nM
  TGI: 3810 nM
A549 NSCLC
  GI50: 645 nM
  TGI: 8310 nM
ACHN renal
  GI50: 149 nM
  TGI: 5440 nM
BT-549 breast
  GI50: 1450 nM
  TGI: 8570 nM
CAKI-1 renal
  GI50: 146 nM
  TGI: 4440 nM
CCRF-CEM leukemia
  GI50: 398 nM
  TGI: 3910 nM
COLO 205 colon
  GI50: 3340 nM
  TGI: 11900 nM
DU-145 prostate
  GI50: 770 nM
  TGI: 9720 nM
EKVX NSCLC
  GI50: 746 nM
  TGI: 11900 nM
HCC-2998 colon
  GI50: 1580 nM
  TGI: 6030 nM
HCT-116 colon
  GI50: 348 nM
  TGI: 1470 nM
HCT-15 colon
  GI50: 65.5 nM
  TGI: 2070 nM
HL-60(TB) leukemia
  GI50: 314 nM
  TGI: 1400 nM
HOP-62 NSCLC
  GI50: 367 nM
  TGI: 5040 nM
HOP-92 NSCLC
  GI50: 1670 nM
  TGI: 11700 nM
HS 578T breast
  GI50: 1720 nM
  TGI: 7540 nM
HT29 colon
  GI50: 2640 nM
  TGI: 6830 nM
IGROV1 ovarian
  GI50: 493 nM
  TGI: 4360 nM
K-562 leukemia
  GI50: 374 nM
  TGI: 2440 nM
KM12 colon
  GI50: 534 nM
  TGI: 3130 nM
LOX IMVI melanoma
  GI50: 334 nM
  TGI: 1400 nM
M14 melanoma
  GI50: 351 nM
  TGI: 1990 nM
MALME-3M melanoma
  GI50: 1450 nM
  TGI: 8120 nM
MCF7 breast
  GI50: 365 nM
  TGI: 1520 nM
MDA-MB-231 breast
  GI50: 774 nM
  TGI: 3270 nM
MDA-MB-435
  GI50: 855 nM
  TGI: 11200 nM
MOLT-4 leukemia
  GI50: 378 nM
  TGI: 2130 nM
NCI-H226 lung
  GI50: 912 nM
  TGI: 3190 nM
NCI-H23 lung
  GI50: 708 nM
  TGI: 3130 nM
NCI-H460 lung
  GI50: 395 nM
  TGI: 1470 nM
NCI-H522 lung
  GI50: 287 nM
  TGI: 1110 nM
NCI/ADR-RES ovarian
  GI50: 50.8 nM
  TGI: 840 nM
OVCAR-3 ovarian
  GI50: 403 nM
  TGI: 1870 nM
OVCAR-4 ovarian
  GI50: 320 nM
  TGI: 1410 nM
OVCAR-5 ovarian
  GI50: 1430 nM
  TGI: 13500 nM
OVCAR-8 ovarian
  GI50: 430 nM
  TGI: 2150 nM
PC-3 prostate
  GI50: 657 nM
  TGI: 11200 nM
RPMI-8226 leukemia
  GI50: 601 nM
  TGI: 2720 nM
RXF 393 renal
  GI50: 878 nM
  TGI: 3450 nM
SF-268 CNS
  GI50: 673 nM
  TGI: 7980 nM
SF-295 CNS
  GI50: 1180 nM
  TGI: 6260 nM
SF-539 CNS
  GI50: 420 nM
  TGI: 2040 nM
SK-MEL-2 melanoma
  GI50: 1610 nM
  TGI: 4530 nM
SK-MEL-28 melanoma
  GI50: 768 nM
  TGI: 10200 nM
SK-MEL-5 melanoma
  GI50: 302 nM
  TGI: 1150 nM
SK-OV-3 ovarian
  GI50: 639 nM
  TGI: 4530 nM
SN12C renal
  GI50: 825 nM
  TGI: 4600 nM
SNB-19 CNS
  GI50: 772 nM
  TGI: 5700 nM
SNB-75 CNS
  GI50: 1190 nM
  TGI: 11500 nM
SR leukemia
  GI50: 323 nM
  TGI: 2080 nM
SW-620 colon
  GI50: 471 nM
  TGI: 2380 nM
T-47D breast
  GI50: 398 nM
  TGI: 4370 nM
TK-10 renal
  GI50: 409 nM
  TGI: 12600 nM
U251 CNS
  GI50: 466 nM
  TGI: 2450 nM
UACC-257 melanoma
  GI50: 783 nM
  TGI: 3930 nM
UACC-62 melanoma
  GI50: 318 nM
  TGI: 1620 nM
UO-31 renal
  GI50: 127 nM
  TGI: 2140 nM
